Assay results published in US8884030B2, “Inhibitors of Flaviviridae viruses” (priority 2010, dated 2014).

Each compound was assayed on human hepatoma Huh-7 cell line harboring a HCV replicon (assay: HCV replicon assay (inhibition of viral replication, luciferase)). Conditions: Hepatitis C virus, 72 h; 2 μM; Huh-7 HCV replicon cells, 3 days incubation; inhibition of viral replication; read-out: % inhibition at 2 μM.
Format: cell-based
How it was run: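 Huh-7 replicon cells (1600/well) exposed 3 days at 37 °C to 10-point 3-fold dilutions, 0.44% DMSO. Replication measured by Dual-Glo luciferase, background from ITMN-191 wells; cytotoxicity by calcein AM. EC50/CC50 from Hill fit; % inhibition at fixed concentration derivable from fit.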

SMILES | inhibition at 2 µM [%]
CC(C)(C)C#Cc1cc(N(C(=O)[C@H]2CC[C@H](C)CC2)C2CCN(C(=O)OC3(C)CCNC3)CC2)c(C(=O)O)s1 (stereo partly drawn) [Compound 72, 4-[[2-Carboxy-5-(3,3-dimethyl-but-1-ynyl)-thiophen-3-yl]-(trans-4-methyl-cyclohexanecarbonyl)-amino]-piperidine-1-carboxylic acid 3-methyl-pyrrolidin-3-yl ester] | 99.7
CC(C)(C)C#Cc1cc(N(C(=O)[C@H]2CC[C@H](C)CC2)C2CCN(C(=O)OC3(C)CN(C(=O)OC(C)(C)C)C3)CC2)c(C(=O)O)s1 [Compound 73, 4-[[2-carboxy-5-(3,3-dimethyl-but-1-ynyl)-thiophen-3-yl]-(trans-4-methyl-cyclohexanecarbonyl)-amino]-piperidine-1-carboxylic acid 1-tert-butoxycarbonyl-3-methyl-azetidin-3-yl ester] | 93.1
CC(C)(C)C#Cc1cc(N(C(=O)[C@H]2CC[C@H](C)CC2)C2CCN(C(=O)OC3CCS(=O)(=O)C3)CC2)c(C(=O)O)s1 (stereo partly drawn) [Compound 74, 4-[[2-carboxy-5-(3,3-dimethyl-but-1-ynyl)-thiophen-3-yl]-(trans-4-methyl-cyclohexanecarbonyl)-amino]-piperidine-1-carboxylic acid 1,1-dioxo-tetrahydro-1λ^6-thiophen-3-yl ester] | 99.7
CC(C)(C)C#Cc1cc(N(C(=O)[C@H]2CC[C@H](C)CC2)C2CCC(NC(=O)OC3(C)CCN(C(=O)OC(C)(C)C)C3)CC2)c(C(=O)O)s1 (some centres unmarked) [Compound 75] | 97.5
CC(C)(C)C#Cc1cc(N(C(=O)[C@H]2CC[C@H](C)CC2)C2CCC(NC(=O)OC3(C)CCNC3)CC2)c(C(=O)O)s1 (stereo partly drawn) [Compound 76, 5-(3,3-Dimethyl-but-1-ynyl)-3-{(trans-4-cyclohexanecarbonyl)-[4-(3-methyl-pyrrolidin-3-yloxycarbonylamino)-cyclohexyl]-amino}-thiophene-2-carboxylic acid] | 99.4
CC(C)(C)C#Cc1cc(N(C(=O)[C@H]2CC[C@H](C)CC2)C2CCC(NC(=O)OC3CCS(=O)(=O)C3)CC2)c(C(=O)O)s1 (stereo partly drawn) [Compound 77, 5-(3,3-dimethyl-but-1-ynyl)-3-[[4-(1,1-dioxo-tetrahydro-1λ^6-thiophen-3-yloxycarbonylamino)-cyclohexyl]-(trans-4-methylcyclohexanecarbonyl)-amino]-thiophene-2-carboxylic acid] | 99.9
CC1CCC(C(=O)N(c2cc(C#CC(C)(C)C)sc2C(=O)O)C2CCC(NN(C)c3ccccn3)CC2)CC1 (centres unmarked) [Compound 79, 5-(3,3-Dimethyl-but-1-ynyl)-3-{(4-methyl-cyclohexanecarbonyl)-[4-(N′-methyl-N′-pyridin-2-yl-hydrazino)-cyclohexyl]-amino}-thiophene-2-carboxylic acid] | 100
CN(NC1CCC(N(c2cc(C#CC(C)(C)C)sc2C(=O)O)C(=O)[C@H]2CC[C@H](C)CC2)CC1)c1cnccn1 (some centres unmarked) [Compound 80, 5-(3,3-Dimethyl-but-1-ynyl)-3-{(4-methyl-cyclohexanecarbonyl)-[4-(N′-methyl-N′-pyrazin-2-yl-hydrazino)-cyclohexyl]-amino}-thiophene-2-carboxylic acid] | 99.8
CC1CCC(C(=O)N(c2cc(C#CC(C)(C)C)sc2C(=O)O)C2CCC(NN(C)c3nccs3)CC2)CC1 (centres unmarked) [Compound 81, 5-(3,3-Dimethyl-but-1-ynyl)-3-{(4-methyl-cyclohexanecarbonyl)-[4-(N′-methyl-N′-thiazol-2-yl-hydrazino)-cyclohexyl]-amino}-thiophene-2-carboxylic acid] | 100
CC1CCC(C(=O)N(c2cc(C#CC(C)(C)C)sc2C(=O)O)C2CCC(NN(C)c3ccc(O)nn3)CC2)CC1 (centres unmarked) [Compound 82, 5-(3,3-Dimethyl-but-1-ynyl)-3-[{4-[N′-(6-hydroxy-pyridazin-3-yl)-N′-methyl-hydrazino]-cyclohexyl}-(4-methyl-cyclohexanecarbonyl)-amino]-thiophene-2-carboxylic acid] | 100
CC1CCC(C(=O)N(c2cc(C#CC(C)(C)C)sc2C(=O)O)C2CCC(NN(C)c3ccc(Cl)nn3)CC2)CC1 (centres unmarked) [Compound 83, 3-[{4-[N′-(6-Chloro-pyridazin-3-yl)-N′-methyl-hydrazino]-cyclohexyl}-(4-methyl-cyclohexanecarbonyl)-amino]-5-(3,3-dimethyl-but-1-ynyl)-thiophene-2-carboxylic acid] | 99.9
CC(C)(C)C#Cc1cc(N(C(=O)[C@H]2CC[C@H](C)CC2)C2CCC(=NOCc3ccccn3)CC2)c(C(=O)O)s1 (stereo partly drawn) [Compound 112, 5-(3,3-Dimethyl-but-1-ynyl)-3-{(4-trans-methyl-cyclohexanecarbonyl)-[4-(pyridin-2-ylmethoxyimino)-cyclohexyl]-amino}-thiophene-2-carboxylic acid] | 99.9
CC(C)(C)C#Cc1cc(N(C(=O)[C@H]2CC[C@H](C)CC2)C2CCC(=NOCc3ccccc3)CC2)c(C(=O)O)s1 (some centres unmarked) [Compound 113] | 98.1
CC(C)(C)C#Cc1cc(N(C(=O)[C@H]2CC[C@H](C)CC2)C2CCC(=NOCn3cncn3)CC2)c(C(=O)O)s1 (some centres unmarked) [Compound 114, 3-(N-(4-((1H-1,2,4-Triazol-1-yl)methoxyimino)cyclohexyl)-4-methylcyclohexanecarboxamido)-5-(3,3-dimethylbut-1-ynyl)thiophene-2-carboxylic acid] | 100
CC(C)(C)C#Cc1cc(N(C(=O)[C@H]2CC[C@H](C)CC2)C2CCC(=NOCC(=O)O)CC2)c(C(=O)O)s1 (some centres unmarked) [Compound 115, 3-(N-(4-(Carboxymethoxyimino)cyclohexyl)-4-methylcyclohexanecarboxamido)-5-(3,3-dimethylbut-1-ynyl)thiophene-2-carboxylic acid] | 99.8
CC(C)(C)C#Cc1cc(N(C(=O)[C@H]2CC[C@H](C)CC2)C2CCC(=NOCC#N)CC2)c(C(=O)O)s1 (some centres unmarked) [Compound 116, 3-(N-(4-(Cyanomethoxyimino)cyclohexyl)-4-methylcyclohexanecarboxamido)-5-(3,3-dimethylbut-1-ynyl)thiophene-2-carboxylic acid] | 99.9
CC1CCC(C(=O)N(c2cc(C#CC(C)(C)C)sc2C(=O)O)C2CCC(=NOCc3ccncc3)CC2)CC1 (centres unmarked) [Compound 117, 5-(3,3-Dimethylbut-1-ynyl)-3-(4-methyl-N-(4-(pyridin-4-ylmethoxyimino)cyclohexyl)cyclohexanecarboxamido)thiophene-2-carboxylic acid] | 99.9
CC1CCC(C(=O)N(c2cc(C#CC(C)(C)C)sc2C(=O)O)C2CCC(=NOCc3cccnc3)CC2)CC1 (centres unmarked) [Compound 118, 5-(3,3-Dimethylbut-1-ynyl)-3-(4-methyl-N-(4-(pyridin-3-ylmethoxyimino)cyclohexyl)cyclohexanecarboxamido)thiophene-2-carboxylic acid] | 100
CC(C)(C)C#Cc1cc(N(C(=O)[C@H]2CC[C@H](C)CC2)C2CCC(=NOc3ccccc3)CC2)c(C(=O)O)s1 (some centres unmarked) [Compound 119, 5-(3,3-Dimethylbut-1-ynyl)-3-(4-methyl-N-(4-(phenoxyimino)cyclohexyl)cyclohexanecarboxamido)thiophene-2-carboxylic acid] | 97.1
CON=C1CCC(N(C(=O)C2CCC(C)CC2)c2cc(C#CC(C)(C)C)sc2C(=O)O)CC1 (centres unmarked) [Compound 120, 5-(3,3-Dimethylbut-1-ynyl)-3-(N-(4-(methoxyimino)cyclohexyl)-4-methylcyclohexanecarboxamido)thiophene-2-carboxylic acid] | 99.9
